From article PMC4962298 (Research in Pharmaceutical Sciences, 2016)

Experiments:
[1] = system: P-gp expression in Caco-2 cells; assay: Western blot analysis of P-gp expression; type: cell-based; settings: 48 h
[2] = system: intestinal P-gp-mediated digoxin transport; assay: In situ rat single-pass intestinal perfusion; type: in vivo; settings: for increase of digoxin Peff relative to digoxin alone: rat SPIP
[3] = 1 μM drug, not statistically significant

CN(C)C(=N)N=C(N)N [metformin]
P-gp protein levels (P-gp/β-actin) relative to the untreated control ([1]; 7000 μM drug): decreased | increase of digoxin Peff relative to digoxin alone [2, 3]: about 44% | increase of digoxin Peff relative to digoxin alone ([2]; 100 μM drug, P < 0.01): 117.6% | increase of digoxin Peff relative to digoxin alone ([2]; 7000 μM drug, P < 0.01): 167.6%

CCc1ccc(CCOc2ccc(CC3SC(=O)NC3=O)cc2)nc1 (stereo not drawn) [pioglitazone]
P-gp protein levels (P-gp/β-actin) relative to the untreated control ([1]; 300 μM drug): decreased | increase of digoxin Peff relative to digoxin alone [2, 3]: about 38% | increase of digoxin Peff relative to digoxin alone ([2]; 300 μM drug, P < 0.01): ~100%

Cc1ccc(S(=O)(=O)NC(=O)NN2CC3CCCC3C2)cc1 (stereo not drawn) [gliclazide]
P-gp protein levels (P-gp/β-actin) relative to the untreated control ([1]; 500 μM drug): decreased | increase of digoxin Peff relative to digoxin alone ([2]; 0.1 μM drug, significant): about 59% | increase of digoxin Peff relative to digoxin alone ([2]; 10 μM drug, significant): ~76% | increase of digoxin Peff relative to digoxin alone ([2]; 500 μM drug, significant): ~153%

C[C@H]1O[C@@H](O[C@H]2[C@@H](O)C[C@H](O[C@H]3[C@@H](O)C[C@H](O[C@H]4CC[C@@]5(C)[C@H](CC[C@@H]6[C@@H]5C[C@@H](O)[C@]5(C)[C@@H](C7=CC(=O)OC7)CC[C@]65O)C4)O[C@@H]3C)O[C@@H]2C)C[C@H](O)[C@@H]1O [digoxin]
Peff of digoxin (20 μM) alone ([2]; rat jejunum SPIP, digoxin 20 μM, no inhibitor, n = 3, mean ± SD): 3.4 ± 0.8 × 10^-5cm/s
